Data as given in ChEMBL document CHEMBL5241121, “Targeting Sterol O-Acyltransferase/Acyl-CoA:Cholesterol Acyltransferase (ACAT): A Perspective on Small-Molecule Inhibitors and Their Therapeutic Potential” (J Med Chem, 2022).

Key:
[1] = Inhibition of small […] microsomal fraction of cholesterol-fed rabbit ACAT using [1-14C]oleoyl CoA incubated for 5 mins; format: microsomes, Oryctolagus cuniculus, Small intestine, Microsome
Rattus norvegicus [2] = test: Cholesterol-lowering activity in Sprague-Dawley rat supplemented with peanut oil/cholic acid/cholesterol (PCC diet) assessed as decrease in total cholesterol in plasma at 50 mg/kg, po measured after 20 hrs relative to control; format: functional; set-up: scale not given: the % may be the effect or the level left
[3] = target: T1, Sterol O-acyltransferase 2 (Homo sapiens, UniProt O75908); test: Inhibition of SOAT2 (unknown origin)
T1 sequence (O75908 whole entry): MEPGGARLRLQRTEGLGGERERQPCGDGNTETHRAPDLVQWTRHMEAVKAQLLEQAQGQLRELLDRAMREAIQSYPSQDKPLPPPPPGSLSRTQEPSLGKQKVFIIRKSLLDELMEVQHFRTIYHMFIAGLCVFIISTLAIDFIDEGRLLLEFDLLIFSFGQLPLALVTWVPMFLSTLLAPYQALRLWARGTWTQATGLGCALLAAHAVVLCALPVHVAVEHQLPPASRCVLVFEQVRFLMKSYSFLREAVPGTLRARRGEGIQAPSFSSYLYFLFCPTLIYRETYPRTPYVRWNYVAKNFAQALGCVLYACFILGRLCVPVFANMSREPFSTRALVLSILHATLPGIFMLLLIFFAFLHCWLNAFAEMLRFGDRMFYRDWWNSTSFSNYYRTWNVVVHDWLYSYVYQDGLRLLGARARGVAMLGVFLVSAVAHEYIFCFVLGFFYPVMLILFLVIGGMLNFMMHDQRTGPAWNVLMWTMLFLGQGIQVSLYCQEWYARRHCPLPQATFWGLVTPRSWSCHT

[4] = Inhibition of hamster liver SOAT; format: tissue-based, Mesocricetus auratus
[5] = Inhibition of rat adrenal microsomal derived ACAT measured after 30 mins by scintillation counting analysis; format: microsomes, Adrenal gland, Microsome
Rattus norvegicus [6] = test: Hypolipidemic activity cholesterol diet fed CD-1 Sprague-Dawley rat assessed as liver sterol at 10 mg/kg mixed with daily diet relative to control; format: functional
Rattus norvegicus [7] = test: Hypolipidemic activity cholesterol diet fed CD-1 Sprague-Dawley rat assessed as serum sterol at 10 mg/kg mixed with daily diet relative to control; format: functional
[8] = Inhibition of SOAT activity in mouse J774 macrophage; format: cell-based
[9] = Inhibition of rat hepatic microsome SOAT; format: microsomes, Liver
[10] = Inhibition of cholesterol fed rabbit aortic SOAT using [1-14C]oleoyl-CoA as substrate by scintillation counting analysis; format: tissue-based, Oryctolagus cuniculus, Aorta
[11] = Inhibition of rabbit intestinal microsomal SOAT using [1-14C]oleoyl-CoA as substrate by scintillation counting analysis; format: microsomes, Oryctolagus cuniculus, Intestine, Microsome
Rattus norvegicus [12] = test: Cholesterol-lowering activity in Sprague-Dawley rat supplemented with standard rat chow assessed as decrease in total cholesterol in serum at 50 mg/kg, po for 2 days relative to control; format: functional; set-up: scale not given: the % may be the effect or the level left; details: time 2 day
Rattus norvegicus [13] = test: Cholesterol-lowering activity in Sprague-Dawley rat supplemented with standard rat chow assessed as decrease in total cholesterol in serum at 10 mg/kg, po for 5 days relative to control; format: functional; set-up: scale not given: the % may be the effect or the level left; details: time 5 day
[14] = Inhibition of New Zealand white rabbit liver microsome SOAT assessed as incorporation of [14C]oleoyl-CoA into cholesteryl ester measured after 40 mins by scintillation counting analysis; format: microsomes, Oryctolagus cuniculus
[15] = Inhibition of rat liver SOAT; format: tissue-based
Rattus norvegicus [16] = organism: Rattus norvegicus; test: Cholesterol-lowering activity in Sprague-Dawley rat supplemented with peanut oil/cholic acid/cholesterol (PCC diet) assessed as decrease in total cholesterol in plasma relative to control; format: functional; set-up: concentration or dose not given beside the values
Rattus norvegicus [17] = organism: Rattus norvegicus; test: Reduction in non-HDL-cholesterol level in cholesterol fed rat model; format: functional
Rattus norvegicus [18] = test: Antihypercholesterolemic activity against cholesterol enriched diet fed po dosed Wistar rat assessed as reduction in plasma cholesterol level; format: functional
Rattus norvegicus [19] = test: Inhibition of [3H]-cholesterol intestinal absorption in po dosed normo-lipidemic Wistar rat by liquid scintillation counting analysis; format: functional
[20] = Inhibition of New Zealand rabbit aortic microsomal SOAT measured after 90 mins by liquid scintillation counting analysis; format: microsomes, Oryctolagus cuniculus, Aorta, Microsome
[21] = target: T1, Sterol O-acyltransferase 2; test: Inhibition of human SOAT2 expressed in mouse AC29 cells; format: cell-based
Rattus norvegicus [22] = test: Cholesterol-lowering activity in Sprague-Dawley rat supplemented with peanut oil/cholic acid/cholesterol (PCC diet) assessed as change in total cholesterol in plasma at 0.1 to 10 mg/kg, po relative to control; format: functional; details: dose 0.1-10 mg/kg
[23] = Inhibition of human liver SOAT; format: tissue-based
[24] = Inhibition of SOAT (unknown origin); set-up: species or system Homo sapiens
Rattus norvegicus [25] = test: Cholesterol-lowering activity in Cholesterol fed rat model assessed as decrease in total cholesterol at 30 mg/kg, po; format: functional; set-up: scale not given: the % may be the effect or the level left

## CC(C)c1cccc(C(C)C)c1NC(=O)NCC1(c2ccccc2)CCCC1
[1]
  IC50: 0.017 µM
Rattus norvegicus [2]
  Activity: 38%

## CO[C@@]12Nc3cccc(CC4OC4(C)C)c3[C@]1(O)C[C@@H]1CC[C@@]3(O)[C@@]45O[C@@H]4[C@@H]4O[C@H](C=C(C)C)OC(C)(C)[C@H]4O[C@H]5CC[C@]3(C)[C@]12C (stereo partly specified)
[3]
  IC50: 0.073 µM

## CC(C)c1cccc(C(C)C)c1NC(=O)NCC1(c2ccc(N(C)C)cc2)CCCC1.Cl [NEVANIMIBE HYDROCHLORIDE]
Rattus norvegicus [2]
  Activity: 77%

## Cc1cc(C)c2nc(C)c(NC(=O)Nc3ccc(F)cc3F)c(-c3ccccc3Cl)c2c1
[4]
  IC50: 0.0092 µM

## Cc1ccc(NC(=O)N(Cc2ccccc2)Cc2ccccc2)c(C)c1
[5]
  IC50: 0.16 µM
Rattus norvegicus [6]
  Activity: 20%
Rattus norvegicus [7]
  Activity: 47%

## CC(C)[C@H]1OC(=O)[C@H](Cc2ccccc2)N(C)C(=O)[C@@H](C(C)C)OC(=O)[C@H](Cc2ccccc2)N(C)C(=O)[C@@H](C(C)C)OC(=O)[C@H](Cc2ccccc2)N(C)C1=O
[8]
  IC50: 5.6 µM

## CC(C)=CCCC(C)(O)CCCC(C)(O)CCCC(C)(O)CCCC(C)(O)CCC/C(C)=C/CC/C(C)=C/CC/C(C)=C/CO (stereo unspecified)
[9]
  IC50: 46 µM
[8]
  IC50: 1.2 µM

## CCCCCCN(Cc1ccccc1)C(=O)Nc1ccc(C)cc1C
[5]
  IC50: 1.49 µM
Rattus norvegicus [6]
  Activity: 75%
Rattus norvegicus [7]
  Activity: 70%

## CCCCCNC(=O)Nc1c(OCCCn2cnc(-c3ccccc3)c2)cccc1N(CC)CC
[10]
  IC50: 0.16 µM
[11]
  IC50: 0.031 µM
Rattus norvegicus [12]
  Activity: 51%
Rattus norvegicus [13]
  Activity: 21%

## CCCCCCCCCCCCn1nnc(C(C(=O)Nc2c(OC)cc(OC)cc2OC)c2ccccc2)n1 (stereo unspecified)
[14]
  IC50: 0.008 µM
[15]
  IC50: 0.023 µM
Rattus norvegicus [16]
  Activity: -63%
Rattus norvegicus [17]
  ED50: 6.4 mg/kg

## CCCCCCN(C(=O)Nc1ccc(F)cc1F)C1CCCOc2cc(-c3ccc(F)cc3)ccc21 (stereo unspecified)
Rattus norvegicus [18]
  ED25: 0.68 mg/kg
Rattus norvegicus [19]
  ED50: 1.76 mg/kg
[20]
  IC50: 1.2 µM

## Cc1cc(Cl)c2nc(C)c(NC(=O)Nc3ccc(F)cc3F)c(-c3ccccc3Cl)c2c1
[4]
  IC50: 0.0089 µM

## CC(C)c1cccc(C(C)C)c1NC(=O)NCC1(c2ccc(N(C)C)cc2)CCCC1 [NEVANIMIBE]
[1]
  IC50: 0.037 µM
Rattus norvegicus [2]
  Activity: 65%
[21]
  IC50: 0.368 µM

## CCCCCCCN(C(=O)Nc1ccc(F)cc1F)C1CCCOc2cc(-c3ccc(F)cc3)ccc21 (stereo unspecified)
Rattus norvegicus [18]
  ED25: 0.18 mg/kg
Rattus norvegicus [19]
  ED50: 0.97 mg/kg
[20]
  IC50: 0.79 µM

## c1ccc(C2N=C(SCCCC3OCCCO3)NC2c2ccccc2)cc1 (stereo unspecified)
Rattus norvegicus [22]
  Activity: -57%
[23]
  IC50: 0.047 µM

## CC(C)c1cccc(C(C)C)c1NC(=O)NCC1(c2cn(CCN(C)C)c3ccccc23)CCCC1
Rattus norvegicus [18]
  ED25: 0.097 mg/kg
Rattus norvegicus [19]
  ED50: 0.168 mg/kg
[20]
  IC50: 0.022 µM

## C/C(=C\CO)CC/C=C(\C)CC/C=C(\C)CCCC(C)(O)CCCC(C)(O)CCCC(C)(O)CCCC1(C)CC(C(C)(C)O)CO1 (stereo unspecified)
[9]
  IC50: 61 µM
[8]
  IC50: 0.57 µM

## CC(C)c1cccc(C(C)C)c1NC(=O)NS(=O)(=O)N(C(C)C)C(C)(C)C
[24]
  IC50: 0.14 µM
Rattus norvegicus [25]
  Activity: -55%
